Key:
[1] = biological target: T1, Tdp1 (Homo sapiens, UniProt Q9NUW8); assay: Tdp1 gel assay (32P-labeled 14Y / D14Y / 14Y-CC substrates, denaturing PAGE, densitometry); format: biochemical; settings: for Ability to inhibit Tdp1 activity in the 14Y substrate (gel): 25 nM 14Y, 1 ng Tdp1, 20 min, pH 8.0, 25° C.; for Conversion half-time (t) of 14Y: 1.9 min in the absence of drug
T1 construct: His tag with thrombin site and linker (printed […] = X1; made in house; host or cells: E. coli BL21 (Novagen), plasmid pHN1910 in vector pET 15b
Source text: FIG. 7. […] A, Schematic representation of the Tdp1 biochemical assay. The partially duplex […] D14Y or single stranded 14Y was used as a substrate. ^32P-Radiolabeling (*) was at the 5′ terminus of the 14-mer strand. Tdp1 catalyzes the hydrolysis of the 3′-phosphotyrosine bond and converts 14Y and D14Y to an oligonucleotide with 3′-phosphate, 14P or D14P respectively. […] Arrows indicate the 3′-phosphate oligonucleotide product (14P) that runs quicker than the corresponding tyrosyl oligonucleotide substrate (14Y) in a denaturing PAGE. The duplex D14Y substrate and D14P product are detected on the gel by their corresponding labeled single strands (14Y and 14P), as they are no longer annealed under the denatured conditions.
FIG. 9. […] Aliquots were taken at the indicated times (min). Reaction products were analyzed by denaturing PAGE. B, densitometry analysis of the gel shown in A. Tdp1 activity measured as the percentage of DNA substrate 14Y converted to 14P (Left panel) or substrate 14Y remaining (Right panel) as a function of reaction time. […] A representative gel is shown. D, densitometry analysis of the gel shown in C. Tdp1 activity was calculated as the percentage of DNA substrate 14Y converted to 14P.
FIG. 10. […] A, Sequences of the oligonucletotide substrates 14Y and 14Y-CC, which differ in their 3′-terminal bases being a -TT or a -CC that is linked to the phosphotyrosine. B, Reactions (100 μl) containing either 25 nM 14Y or 14Y-CC and 5 ng of Tdp1 was incubated at pH 8.0 at 25° C. Aliquots were taken at the indicated times (min). Reaction products were analyzed by denaturing PAGE. C, densitometry analysis of the gel shown in B. Tdp1 activity measured as the percentage of DNA substrates 14Y or 14Y-CC converted to their corresponding products as a function of reaction time. […] A representative gel is shown. E, densitometry analysis of the gel shown in D. Tdp1 activity was calculated as the percentage of DNA substrates 14Y or 14Y-CC converted to their product.
FIG. 11. […] R; common chemical moiety. […] Samples were separated on a 20% Urea-PAGE gel and visualized.
Preparation of Tdp1 substrates: HPLC purified oligonucleotides N14Y (Plo et al., (2003) DNA Repair (Amst) 2(10):1087-1100) were labeled at their 5′-end with [γ-^32P]-ATP (Perkin-Elmer Life Science Co., Boston, Mass.) by incubation with 3′-phosphatase free T4 polynucleotide kinase (Roche applied Science, Indianapolis, Ind.) according to the manufacturer's protocols. Unincorporated nucleotides were removed by Sephadex G-25 spin-column chromatography (Mini Quick Spin Oligo Columns, Roche, Indianapolis, Ind.). For the production of the oligonucleotide duplexes D14Y, N14Y was mixed with the complementary oligonucleotide in equal molar ratios in annealing buffer (10 mM Tris-HCl pH 7.5, 100 mM NaCl, 10 mM MgCl2), heated to 96° C., and allowed to cool down slowly (over 2 h) to room temperature. Tdp1 assays: Unless indicated otherwise, Tdp1 assays are performed in 20 μl mixtures containing 50 mM Tris-HCl, pH 8.0, 80 mM KCl, 2 mM EDTA, 1 mM dithiothreitol (D)T, and 40 μg/ml bovine serum albumin (BSA). For initial screening of Tdp1 inhibitors, 25 nM of 5′-^32P-labeled substrate (D14Y) is reacted with 1 ng Tdp1 (≈0.7 nM) in the absence or presence of inhibitor for 20 min at 25° C. Reactions are stopped by addition of 60 μl of gel loading buffer (98% (v/v) formamide, 1% (w/v) xylene cyanol, 1% (w/v) bromophenol blue). Twelve μl of aliquots are resolved in 20% denaturing polyacrylamide (AccuGel, National Diagnostics, Atlanta, Ga.) (19:1) gel containing 7 M urea. After drying, gels are exposed overnight to PhosphorImager screens (Molecular Dynamics, Sunnyvale, Calif.). Screens are scanned, and images are obtained with the Molecular Dynamics software (Sunnyvale, Calif.). Densitometry analyses are performed using ImageQuant 5.2 software package (Amersham Biosciences, Piscataway, N.J.).

[2] = biological target: T1, Tdp1; assay: High-throughput electrochemiluminescent (ECL) Tdp1 assay; format: biochemical
Source text: High-throughput electrochemiluminescene assay developed to identify novel Tdp1 inhibitors. […] This leads to a loss of the chemiluminescence signal. Positive hits for potential Tdp1 inhibitors prevent this loss of signal. C, Signal response curve in the presence of increasing concentrations (nM) of Tdp1.
A, Graph representing the effect of 1981 compounds in the NCI-DTP diversity set on Tdp1 activity at 10 pM. Each dot indicates a signal value for a tested sample. The substrate chemiluminescence (Arbitrary units; A.U.) in the absence of Tdp1 averages at 16313±1084 (n=200; where “n” indicates the number of samples). In the presence of Tdp1 the loss of signal averages at 8784±559 (n=100). The effect of 1981 compounds screened is represented. Positive Tdp1 inhibitors prevent the loss of signal. […] Vanadate at 10 mM was used for comparison.

T1 sequence (Q9NUW8 whole entry): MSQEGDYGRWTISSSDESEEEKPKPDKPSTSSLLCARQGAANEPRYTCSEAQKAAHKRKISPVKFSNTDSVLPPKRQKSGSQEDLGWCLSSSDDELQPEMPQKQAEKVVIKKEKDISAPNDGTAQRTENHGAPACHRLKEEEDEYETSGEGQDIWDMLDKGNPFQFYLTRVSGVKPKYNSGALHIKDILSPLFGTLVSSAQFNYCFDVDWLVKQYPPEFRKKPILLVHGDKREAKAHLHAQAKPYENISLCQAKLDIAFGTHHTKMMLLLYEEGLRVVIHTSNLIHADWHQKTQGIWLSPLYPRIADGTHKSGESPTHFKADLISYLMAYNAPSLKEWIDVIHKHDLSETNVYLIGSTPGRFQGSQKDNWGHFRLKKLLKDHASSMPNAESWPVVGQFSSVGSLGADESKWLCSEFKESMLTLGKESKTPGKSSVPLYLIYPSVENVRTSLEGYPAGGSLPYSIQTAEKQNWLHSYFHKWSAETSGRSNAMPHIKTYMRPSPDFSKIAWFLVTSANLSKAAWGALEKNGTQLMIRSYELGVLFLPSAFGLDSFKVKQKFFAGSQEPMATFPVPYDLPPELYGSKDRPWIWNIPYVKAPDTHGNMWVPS

SMILES	Ability to inhibit Tdp1 activity in the 14Y substrate (gel) [1]	IC50 ([1]; IC50 ds14Y, double-stranded 14Y substrate) [µM]	IC50 ([1]; IC50 ss14Y, single-stranded 14Y substrate) [µM]	ECL signal value (substrate chemiluminescence) ([2]; 10 μM compound, without Tdp1 16313±1084, with Tdp1 8784±559) [A.U.]	inhibition at 10 µM ([2]; at 10 μM) [%]	inhibition at 30 µM ([1]; 30 μM compound, 0.1 ng of Tdp1, 14Y) [%]	Inhibition of Tdp1 activity after increasing Tdp1 ([1]; 30 μM compound, Tdp1 increased to 1 ng, 14Y)	Conversion half-time (t) of 14Y ([1]; 30 μM compound) [min]	Conversion half-time (t) of 14Y ([1]; 60 μM compound) [min]	Type of Tdp1 inhibition ([1]; dependence on reaction time and Tdp1 concentration)
CC(=O)NCC(=O)O.CC(=O)NCC(=O)O.N=C(N)c1ccc(N=NNc2ccc(C(=N)N)cc2)cc1 [Berenil, reference compound]	some activity, albeit at a high concentration (300 μM)									
CN(C)C1C(O)=C(C(=O)NCN2CCN(C(=N)NC(=N)N)CC2)C(=O)C2(O)C(O)=C3C(=O)c4c(O)cccc4C(C)(O)C3CC12 (centres unmarked) [Compound (a)]		19	12							
N=C(N)c1ccc(-c2ccc(-c3ccc(C(=N)N)cc3)o2)cc1 [Compound (b), 2,5-di-(4-phenylamidine)furan]	exhibits an inhibition of Tdp1 activity at 30 μM			16910	100	50	almost completely reversed	2.7	4.4	reversible inhibition

— patent US20090298934A1, “Diamidine Inhibitors of TDP1” (GOVERNMENT OF THE US, AS REPRESENTED BY THE SECRET, priority 2006, published 2009)
